Laboratory results from paper PMC9531438, “Preclinical development of carrier-free prodrug nanoparticles for enhanced antitumor therapeutic potential with less toxicity” (Journal of Nanobiotechnology, 2022).
Like-named read-outs stand apart in the source and are kept apart here. Where a SMILES comes first, the peptide text is derived from it. The star is where a group is joined. Doxorubicin(3'-N) = COc1cccc2c1C(=O)c1c(O)c3c(c(O)c1C2=O)C[C@@](O)(C(=O)CO)C[C@@H]3O[C@H]1C[C@H](N*)[C@H](O)[C@H](C)O1

Key:
KPC960 cells = experiment: CCK-8 cytotoxicity; format: cell-based, human; conditions: 48 h treatment
Protocol: (§1) The cytotoxicity of F68-FDOX was assessed via a cell counting kit-8 (CCK-8) assays. First, 1 × 10^5 HT29, MDA-MB231, KPC960 or H9C2 cells were seeded into 96-well cell culture plates. […] Finally, cell viability was measured by a microplate reader (VERSAmaxTM; Molecular Devices Corp., USA) with 450 nm of wavelength.

H9C2 cells = experiment: CCK-8 cytotoxicity; format: cell-based, rat; conditions: 48 h treatment, normal cardiomyocytes
Protocol: as §1

[1] = Pharmacokinetics after intravenous injection; format: in vivo, mice
Protocol: (§2) The 6-week male BALB/c and BALB/c nu/nu mice were purchased from NaraBio (Gyeonggi-do, Republic of Korea). Mice were bred under pathogen-free conditions in the Korea Institute of Science and Technology (KIST). All experiments with animals were performed in compliance with the relevant laws and institutional guidelines of Institutional Animal Care and Use Committee (IACUC; approved number of 2020-123) in Korea Institute of Science and Technology (KIST). […] After treatment, blood samples were collected from mice by cardiac puncture after deep anesthesia at pre-determined times, followed by analysis with HPLC with fluorescence detector. The PK parameters including area under the curves (AUC), clearance (CL), volume of distribution (Vd) and half-life (t1/2) were calculated using a WinNonlin software. […] The fluorescence intensities in the tumor regions were quantified using a Living Image software (PerkinElmer, Waltham, MA, USA). The ex vivo NIRF imaging of collected major organs after 9 h of injection was also performed using IVIS Lumina Series III system. […] For this analysis, each tissue was cut into 8-μm sections using rotary microtome and analyzed via confocal laser scanning microscope (CLSM) equipped with 405 diode (405 nm) and HeNe-Red (633 nm) lasers.

HT29 tumor-bearing mice [2] = experiment: Pharmacodynamics, histological analysis of organs and tumor tissues (CLSM); format: in vivo; conditions: i.v. 4 mg/kg based on DOX, 9 h after injection
Protocol: as §2

HT29 tumor = experiment: Antitumor activity, colon tumor model; format: in vivo
Protocol: (§3) The antitumor activity was evaluated in colon, breast and pancreatic cancer models, which were prepared by subcutaneous injection with 1 × 10^7 HT29, MDA-MB231 or KPC960 cells, respectively. […] The mice were treated once every three days, and tumor volumes were calculated as the largest diameter × smallest diameter^2 × 0.53, every 2 days. The mice with a tumor size of 2000 mm^3 or higher were counted as dead. To analyze the antitumor activity in a single cell level, the tumor tissues were collected on day 9, and single cell were isolated from the tumor tissues using a Tumor Dissociation Kit. After cell counting, single cells were stained with Annexin V for 1 h in room temperature and analyzed via flow cytometer.

[3] = test system: colon (HT29) tumor tissues; experiment: Annexin V staining of single tumor cells (flow cytometry); format: in vivo, mice; conditions: day 9 after treatment, mean
Protocol: as §3

BALB/c mice [4] = experiment: Toxicity study after multi-dosage; format: in vivo
Protocol: (§4) The safety of F68-FDOX treatment was assessed by histological and hematological analyses. Briefly, DOX (4 mg/kg), FRRG-DOX (4 mg/kg based on DOX contents) or F68-FDOX (4 mg/kg based on DOX contents) were intravenously injected into BALB/c mice. On day 9 after treatments, major organs were collected from mice, and structural abnormalities and apoptosis in organ tissues were assessed by staining with H&E or TUNEL, respectively. In case of hematological analyses, blood samples were collected from mice on day 9. For the complete blood count (CBC) analyses, each blood sample was mixed with EDTA, and a portion of blood sample was centrifuged at 2100 rpm for 20 min to obtain blood plasma. The following factors in blood samples were measured; albumin/globulin ratio (A/G), troponin-I, albumin (Alb), total protein (TP), alanine aminotransferase (ALT), total cholesterol (T-Chol), blood urea nitrogen (BUN), alkaline phosphatase (ALP), red blood cell (RBC), white blood cell (WBC), mean corpuscular hemoglobin (MCH), mean corpuscular volume (MCV), hematocrit (HCT), hemoglobin (HGB) and platelet (PLT). To assess the safety of F68-FDOX treatment after multiple-dosage, DOX (4 mg/kg), FRRG-DOX (4 mg/kg based on DOX contents) or F68-FDOX (4 mg/kg based on DOX contents) were injected into mice once every three days. Then, histological and hematological analyses were performed as described above.

mice = conditions: 5 mg/kg free DOX two times (Total 10 mg/kg); ref [42]; cited from earlier work
Protocol: […] […] Even though same dose of equal drugs was administered into the mice, the outcomes can be varied according to the not only the number and intervals of the administration, but also different reactivity by species, feeding environment and age of the ...

BALB/c mice [5] = experiment: Toxicity study after single-dosage
Protocol: as §4

[6] = format: in vitro ADME, mouse
Excerpt: The carrier-free doxorubicin (DOX) prodrug nanoparticles were designed as an alternative formulation to overcome several problems of conventional nano-sized drug delivery system in the terms of technical- and industrial-aspects. […] This absolutely simplified one-step synthesis protocol allowed 100 g batch of preparation as described in “Methods” section. […] In addition, their precise and concise structure allow easy quality control (QC) after synthesis; thus, we could verify the successful preparation of FRRG-DOX by confirming chemical structure, exact mass and purity via ^1H NMR, MALDI-TOF (calculated mass: 1102.17 Da, measured mass: 1102.595 m/z) and HPLC (99%), respectively (Additional file 1: Fig. S2). Importantly, FRRG-DOX molecules self-assembled into prodrug nanoparticles by its intermolecular π-π stacking hydrophobic interactions without any additional carrier materials, resulting in high drug loading (> 50%). […] This was clearly supported by MALDI-TOF measurement, wherein the molecular weights of G-DOX (calculated mass: 600.58 Da, measured mass: 656.4 m/z [M + Li] and 657.4 m/z [M + Li + H]) were confirmed at the newly appeared peak (13 min) in the HPLC spectrum after incubation of F68-FDOX with cathepsin B (Additional file 1: Fig. S6). […]

[7] = format: physicochemical
Protocol: Finally, we developed F68-FDOX as a lyophilized powder form and evaluated the long-term storage stability of lyophilized F68-FDOX powder stored for 3, 6, 12 months in the low (− 4 °C), room (37 °C) or accelerated (60 °C) condition; for these studies, size distribution, chemical structure and purity were analyzed after reconstitution of lyophilized powder stored at each condition (Additional file 1: Fig. S7–S9). […] Taken together, the manufacturing operation for mass production of F68-FDOX was optimized for preclinical development, and their physicochemical characterization, such as size distribution, particle stability, target enzyme-specificity, and even the long-term storage stability was successfully evaluated in vitro.
To prepare carrier-free prodrug nanoparticles, the cancer-specific prodrug was simply synthesized by conjugating cathepsin B-specific cleavable tetrapeptide (Phe-Arg-Arg-Gly; FRRG) to DOX via one-step reaction. […] The FRRG-DOX was purified using Sep-Pak C18 column chromatography and the resulting filtrate was analyzed via RP-HPLC (Agilent 1200 Series HPLC System). […] The long-term storage stability of FRRG-DOX power was assessed after storage of 3, 6, 12 months in the low (− 4 °C), room (37 °C) or accelerated (60 °C) condition, followed by analysis of size, chemical structure and purity as described above. […]

HT29 tumor-bearing mice [8] = conditions: mouse, in vivo, iv, 4 mg/kg
Protocol: as §2

BALB/c mice [9] = conditions: mouse, in vivo, iv, 10 mg/kg
Protocol: as §4

[10] = mice, i.v., 4 mg/kg based on DOX contents, WinNonlin
[11] = treatment five times with 3 days-intervals
[12] = BALB/c mice, i.v. 10 mg/kg based on DOX, single dose

## COc1cccc2c1C(=O)c1c(O)c3c(c(O)c1C2=O)C[C@@](O)(C(=O)CO)C[C@@H]3O[C@H]1C[C@H](N)[C@H](O)[C@H](C)O1 [DOX, doxorubicin]
KPC960 cells
  IC50: 7.32 µM
H9C2 cells
  IC50: 13.8 µM
[1]; [10]
  CL: 3.02 ± 0.638 mL/min/kg
  Vd: 0.304 ± 0.0976 L/kg
  half-life (t1/2): 1.33 ± 0.23 h
[1]; mice, i.v., 4 mg/kg based on DOX contents, blood, HPLC with fluorescence detector, WinNonlin
  AUClast: 22.18 ± 4.52 µg·h/mL
HT29 tumor-bearing mice [2]
  distribution in major organs and tumor tissues (histology): non-specifically distributed in all the major organs and low tumor accumulation
HT29 tumor; HT29 s.c. tumor, i.v. 4 mg/kg based on DOX once every three days
  colon tumor volume on day 9 after treatment: 478.75 ± 49.87 mm^3
HT29 tumor; HT29 tumor-bearing mice, i.v. 4 mg/kg once every three days
  time within which all mice were dead (tumor model): ≤ 9 days
[3]
  percentage of apoptotic (Annexin V-positive) tumor cells: 17.7 ± 1.51%
BALB/c mice [4]; day 7, H&E
  histology of liver, spleen and heart tissues, multi-dosage: severe tissue damages
BALB/c mice [4]; day 7, treatment with 3 days-intervals
  hematological parameters, multi-dosage: remarkably got out from the normal range
BALB/c mice [4]; [11]
  body weight change, multi-dosage: severe body weight loss
  time within which all mice were dead, multi-dosage: ≤ 7 days
mice
  time within which all mice were dead: within two weeks
BALB/c mice [5]; [12]
  body weight change, single-dosage: gradually reduced
  time within which all mice were dead, single-dosage: ≤ 9 days
BALB/c mice [5]; day 9, i.v. 10 mg/kg
  complete blood count (CBC) analyses, single-dosage: severe leukopenia, oligocythemia and thrombocytopenia
  serological examination (BUN, ALT, troponin-I), single-dosage: severe cardiac, renal and hepatic toxicity
BALB/c mice [5]; day 9, i.v. 10 mg/kg based on DOX
  major organ tissues stained with H&E or TUNEL, single-dosage: elevated structural abnormalities with apoptosis

## COc1cccc2c1C(=O)c1c(O)c3c(c(O)c1C2=O)C[C@@](O)(C(=O)CO)C[C@@H]3O[C@H]1C[C@H](NC(=O)CNC(=O)[C@H](CCCNC(=N)N)NC(=O)[C@H](CCCNC(=N)N)NC(=O)[C@H](Cc2ccccc2)NC(C)=O)[C@H](O)[C@H](C)O1 [FRRG-DOX] (Ac-FRRG-{Doxorubicin(3'-N)})
[1]; mouse, in vivo, iv, 4 mg/kg
  AUCinf: 407.71 ± 85.81 µg·h/mL
  AUClast: 345.99 ± 68.9 µg·h/mL
  CL: 0.1692 ± 0.0405 mL/min/kg
  Vd: 0.0832 ± 0.03185 L/kg
  half-life (t1/2): 7.96 ± 4.59 h
BALB/c mice [5]; [12]
  body weight change, single-dosage: no significant body weight loss

## Phe-Arg-Arg-Gly [F68-FDOX]
[6]
  time of high stability without significant changes of size and polydispersity index in mouse serum: ≥ 6 days
[7]
  stability 24 h after reconstitution (size distribution, chemical structure, purity): no significant changes
[1]; mouse, in vivo, iv, 4 mg/kg
  AUCinf: 1367.44 ± 14.35 µg·h/mL
  AUClast: 1281.17 ± 240 µg·h/mL
  CL: 0.0488 ± 0.0005 mL/min/kg
  Vd: 0.1 ± 0.00269 L/kg
  time for which a detectable amount remained in the body: 96 h
HT29 tumor-bearing mice [8]
  fluorescence intensity in tumor tissues relative to FRRG-DOX (NIRF): 2.42–2.71 fold
BALB/c mice [4]; mouse, in vivo
  histology of liver, spleen and heart tissues, multi-dosage: without damage to the normal organs
BALB/c mice [9]
  all hematological parameters, single-dosage: in normal range
  body weight change, single-dosage: no significant body weight loss
  major organ tissues stained with H&E or TUNEL, single-dosage: did not induce noticeable tissue damages
